Source: publication PMC6828666, “Discovery of holoenzyme-disrupting chemicals as substrate-selective CK2 inhibitors” (Scientific Reports, 2019)

How the values were obtained:
CK2α [1] = biological target: T1, CK2α (Homo sapiens, UniProt P68400); assay: Kinase selectivity profiling (Millipore Kinase profiler); type: biochemical; settings: 100 μM compound; 10 μM ATP
Method: (§1) Kinase selectivity of compound 1 was assessed using a panel of 45 recombinant protein kinases. The assays were performed at 10 μM ATP in the presence of 100 μM inhibitor using the Kinase profiler panel service (Millipore). Inhibition, expressed as the percent of activity determined in the absence of inhibitor, was calculated from the residual activity measured in the presence of 100 μM inhibitor.
(§2) Fig. S4. Kinase selectivity profile of compound 1 on a panel of 45 different protein kinases. The assays were performed at 10 μM ATP in the presence of 100 μM compound 1 using the Upstate Kinase Profiler Panel Service (Millipore). Residual activity in presence of 100 μM compound 1 are depicted in (a) and a graphical representation of the inhibition percentage in the presence of 100 μM compound 1 is shown in (b).

CHK2 = biological target: T2, CHK2 (Homo sapiens, UniProt O96017); assay: as above; type: biochemical; settings: 100 μM compound; 10 μM ATP
T2 construct: purchased Millipore (Upstate Kinase Profiler Panel Service)
T2 sequence (O96017 whole entry): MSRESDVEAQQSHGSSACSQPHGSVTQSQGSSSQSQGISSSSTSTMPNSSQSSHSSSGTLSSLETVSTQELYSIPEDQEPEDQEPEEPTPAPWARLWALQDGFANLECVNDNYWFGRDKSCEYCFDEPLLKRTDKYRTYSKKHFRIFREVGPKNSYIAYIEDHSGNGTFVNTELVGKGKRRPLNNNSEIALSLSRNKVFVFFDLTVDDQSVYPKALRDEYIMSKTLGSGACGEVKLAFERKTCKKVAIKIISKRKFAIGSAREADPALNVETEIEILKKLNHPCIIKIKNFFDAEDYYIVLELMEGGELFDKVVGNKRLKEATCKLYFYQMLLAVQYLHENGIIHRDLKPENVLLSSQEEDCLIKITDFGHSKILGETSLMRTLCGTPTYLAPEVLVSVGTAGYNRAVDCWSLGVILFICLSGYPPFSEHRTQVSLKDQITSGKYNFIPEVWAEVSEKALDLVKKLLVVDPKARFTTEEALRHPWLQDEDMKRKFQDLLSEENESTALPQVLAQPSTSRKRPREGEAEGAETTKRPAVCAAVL
Method: as §1, §2

CK2α2β2 = biological target: T3, CK2α2β2 (Homo sapiens, UniProt P68400); assay: as above; type: biochemical; settings: 100 μM compound; 10 μM ATP
T3 construct: purchased Millipore (Upstate Kinase Profiler Panel Service)
T3 sequence (P68400 whole entry): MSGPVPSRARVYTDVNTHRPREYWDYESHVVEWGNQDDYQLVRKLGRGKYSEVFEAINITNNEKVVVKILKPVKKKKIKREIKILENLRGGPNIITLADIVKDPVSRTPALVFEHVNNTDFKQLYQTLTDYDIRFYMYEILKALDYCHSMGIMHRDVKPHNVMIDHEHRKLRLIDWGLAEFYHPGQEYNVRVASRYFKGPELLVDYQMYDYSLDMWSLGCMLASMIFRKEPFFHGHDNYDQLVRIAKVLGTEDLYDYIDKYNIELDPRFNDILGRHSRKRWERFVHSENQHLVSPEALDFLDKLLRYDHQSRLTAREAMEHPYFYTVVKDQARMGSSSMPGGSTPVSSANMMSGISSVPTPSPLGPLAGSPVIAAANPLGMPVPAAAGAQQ
Method: as §1, §2

Pim-1 = biological target: T4, Pim-1 (Homo sapiens, UniProt P11309); assay: as above; type: biochemical; settings: 100 μM compound; 10 μM ATP
T4 construct: purchased Millipore (Upstate Kinase Profiler Panel Service)
T4 sequence (P11309 whole entry): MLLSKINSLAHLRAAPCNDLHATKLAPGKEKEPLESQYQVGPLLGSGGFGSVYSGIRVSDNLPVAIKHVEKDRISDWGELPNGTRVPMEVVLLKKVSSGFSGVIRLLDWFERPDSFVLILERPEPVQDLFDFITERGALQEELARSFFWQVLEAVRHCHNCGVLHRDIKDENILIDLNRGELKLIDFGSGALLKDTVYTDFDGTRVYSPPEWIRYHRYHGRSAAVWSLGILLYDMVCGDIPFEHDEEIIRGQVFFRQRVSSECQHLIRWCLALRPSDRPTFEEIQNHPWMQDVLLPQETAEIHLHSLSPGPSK
Method: as §1, §2

[2] = system: panel of 45 recombinant protein kinases; assay: Kinase selectivity profiling, whole panel; type: biochemical, human; settings: focused selectivity panel of 45 kinases, 100 μM
Method: as §1, §2

CK2α [3] = biological target: T1, CK2α; assay: Steady state kinetic analysis of CK2 inhibition (Lineweaver-Burk); type: biochemical; parameters: made in house; host or cells: Escherichia coli (CK2α); settings: for Ki: increasing ATP
Method: Steady state kinetic analysis of compound 1 complexation with CK2 was performed by incubation of CK2α with increasing concentrations of CK2β in the presence of different concentrations of the compound. ATP and eIF2-derived peptide were present at their saturating concentrations, 100 μM and 600 μM, respectively (Fig. 3e).
In the presence of 100 μM of compound 1, adding increasing concentrations of CK2β-dependent peptide at a saturating concentration of ATP (100 μM) had no effect on the extent of inhibition (Fig. 2d) showing that the inhibition is also not competitive with the peptide substrate. Using steady-state kinetic analysis, we examined the effects of increasing ATP concentrations on the inhibition of phosphorylation by compound 1. In the presence of a saturating concentration of the CK2β-dependent peptide substrate (133 μM), increasing ATP concentrations reduced the level of inhibition but could not restore either the maximal velocity of the enzyme, Vmax, or the Michaelis constant, km, for ATP.
For Olig2 phosphorylation assay, GST-Olig2 fusion protein (3.7 μg) was incubated with 200 nM CK2α, in the absence or presence of 50 μM compound 1 and increasing concentrations of CK2β. Samples were analyzed by SDS PAGE and subjected to autoradiography. Phosphoproteins were quantified by densitometry scanning. For eIF2 peptide phosphorylation assay, the CK2β-dependent peptide substrate (600 μM) was incubated with CK2α (40–50 nM) and increasing concentrations of compound 1 or/and CK2β.
Fig. S2. Ki and Ki’ value determination from enzymatic kinetic characterization of CK2 inhibition by compound 1. (a) Ki value has been calculated from linear regression analysis of the slopes (α/Vmax) of the Lineweaver-Burk double reciprocal plots of Fig 2f. (b) Ki’ value has been calculated from linear regression analysis of the y-intercept (α’/Vmax) of Lineweaver-Burk double reciprocal plots of Fig 2f.

CK2α/CK2β interaction = CK2α/CK2β interaction (Homo sapiens, UniProt P68400); assay: SPR competition study of MBP-CK2β binding to GST-CK2α; settings: 70 μM
Sequence of CK2α/CK2β interaction (P68400 whole entry): as the sequence (P68400 whole entry) above
Method: SPR competition studies (Fig. 2i) were performed using a BIAcore 3000 instrument (BIAcore AB) equipped with a CM5 sensor chip (BIAcore AB). After activation with a solution of N-hydroxysuccinimide and N-ethyl-N-(dimethylaminopropyl)carbodiimide hydrochloride (coupling solution BIAcore AB), the anti-GST antibody diluted at 30 μg/ml in 10 mM acetate buffer pH 5.0 was injected at a flow rate of 5 μL/min for 7 min. All the surfaces were blocked with a 3 min injection at 10 μL/min of 1 M ethanolamine, pH 8.0. GST-CK2α (50 μg/ml) was immobilized on the surface at a flow rate of 5 μL/min in HBS (10 mM Hepes pH 7.3, 0.15 M NaCl, 3 mM EDTA, 0.005% polysorbate 20). MBP-CK2β diluted at 50 μg/ml in HBS buffer was injected over the surface at a flow rate of 5 μL/min in presence of various compound 1 concentration. Regeneration of the surfaces was achieved by injection of 10 mM glycine-HCl pH 2.2. SPR binding studies (Supplementary Fig. S7) were performed using a Reichert SR7000DC instrument optical biosensor (Reichert Technologies) equipped with a CMD500m sensor chip obtained from XanTec Bioanalytics. CK2α was immobilized by a capturing approach using a monoclonal anti-GST antibody (27 kDa, Clone GST-R 6G9 produced in rat, SAB4200055 Sigma Aldrich). […]

T1 sequence (P68400 whole entry): as above

COc1[nH]c2ccc(F)cc2c1C(=O)OCC1CCN(CCNS(C)(=O)=O)CC1 [Compound 1] was tested, and the inhibition at 100 µM (CK2α [1]) was 27%, the inhibition at 100 µM (CHK2) was 24% and the inhibition at 100 µM (CK2α2β2) was 85%. It also gave an inhibition at 100 µM (Pim-1) of 36%, a Gini coefficient [2] of 0.81 and a Ki (CK2α [3]; for CK2α, Lineweaver-Burk slopes) of 12 µM. The Ki (CK2α [3]; for the CK2α-ATP complex, Lineweaver-Burk y-intercepts) was 62 µM, the “Ki' (mixed competitive inhibition towards CK2β)” value (CK2α [3]; for the CK2α-ATP complex, increasing CK2β, ATP 100 μM, eIF2-derived peptide 600 μM) was ~65 µM and the “reduction of SPR signal (MBP-CK2β binding to GST-CK2α)” value (CK2α/CK2β interaction) was “about 60%”.
